What was measured:
[1] = 298.15 K; 101.33 kPa; Liquid; mechanical oscillator
[2] = refractive index (Na D-line) (dimensionless); conditions: 298.15 K; 101.33 kPa; Liquid; Standard Abbe refractometry
[3] = Boiling temperature at pressure P; conditions: Liquid, Ebulliometric method (Recirculating still)
[4] = xn = mol fraction of the nth substance listed; conditions: 101 kPa, Liquid, mechanical oscillator
[5] = refractive index (other wavelength) (dimensionless); xn = mol fraction of the nth substance listed; conditions: 101 kPa, Liquid, Standard Abbe refractometry

CC(C)OC(C)C [diisopropyl ether]
Conditions | mass density [kg/m3] | refractive index
[1] | 718.3 | –
[2] | – | 1.3653

CO [methanol]
Conditions | mass density [kg/m3] | refractive index
[1] | 786.62 | –
[2] | – | 1.32666

[3]
Conditions | Boiling temperature at pressure P [°C]
26.55 kPa | 33.76
29.52 kPa | 36.0
32.46 kPa | 37.94
35.65 kPa | 39.93
37.8 kPa | 41.19
40.63 kPa | 42.76
43.23 kPa | 44.12
44.63 kPa | 44.83
48.35 kPa | 46.62
51.4 kPa | 48.00
53.97 kPa | 49.11
56.89 kPa | 50.32
59.55 kPa | 51.38
62.25 kPa | 52.41
64.9 kPa | 53.39
67.5 kPa | 54.32
70.07 kPa | 55.21
72.95 kPa | 56.17
75.66 kPa | 57.1
78.35 kPa | 57.90
81.05 kPa | 58.72
83.76 kPa | 59.52
86.46 kPa | 60.30
96.35 kPa | 63.00

CO [methanol] + CC(C)OC(C)C
[4], x1 = 1
Conditions | mass density [kg/m3]
293.15 K | 791.62
298.15 K | 786.62
303.15 K | 781.54
308.15 K | 776.5
313.15 K | 771.53
318.15 K | 766.6

refractive index, [5], x1 = 1
Conditions | Wavelength=40.47 nm | Wavelength=435.8 nm | Wavelength=486.1 nm | Wavelength=546.1 nm | Wavelength=587.6 nm | Wavelength=589.3 nm | Wavelength=632.8 nm | Wavelength=644 nm | Wavelength=706.5 nm
293.15 K | 1.33767 | 1.3353 | 1.3324 | 1.32991 | 1.32869 | 1.32864 | 1.32754 | 1.3273 | 1.3261
298.15 K | 1.33564 | 1.3333 | 1.3304 | 1.328 | 1.32671 | 1.32666 | 1.32558 | 1.32535 | 1.32415
303.15 K | 1.33357 | 1.33126 | 1.32839 | 1.32597 | 1.32471 | 1.32467 | 1.3236 | 1.32336 | 1.32219
308.15 K | 1.33153 | 1.32926 | 1.32637 | 1.32397 | 1.32274 | 1.32269 | 1.32163 | 1.32138 | 1.32021
313.15 K | 1.32947 | 1.32722 | 1.32434 | 1.32196 | 1.32073 | 1.32068 | 1.31965 | 1.31942 | 1.31825
318.15 K | 1.32742 | 1.32518 | 1.32234 | 1.31993 | 1.31874 | 1.3187 | 1.31768 | 1.31744 | 1.31631

CC(C)O [propan-2-ol]
Conditions | mass density [kg/m3] | refractive index
[1] | 782.45 | –
[2] | – | 1.37522

[3]
Conditions | Boiling temperature at pressure P [°C]
14.02 kPa | 39.48
16.09 kPa | 42.07
18.94 kPa | 45.20
21.65 kPa | 47.82
24.56 kPa | 50.31
26.99 kPa | 52.21
29.69 kPa | 54.2
32.53 kPa | 56.04
36.08 kPa | 58.20
38.28 kPa | 59.5
40.49 kPa | 60.7
43.63 kPa | 62.27
45.88 kPa | 63.37
48.77 kPa | 64.71
51.47 kPa | 65.91
54.24 kPa | 67.08
56.82 kPa | 68.12
59.59 kPa | 69.20
62.14 kPa | 70.2
65.69 kPa | 71.43
67.6 kPa | 72.09
70.27 kPa | 72.98
73.16 kPa | 73.93
75.65 kPa | 74.72
78.35 kPa | 75.6
81.05 kPa | 76.36
83.8 kPa | 77.16
86.4 kPa | 77.90
96.28 kPa | 80.54

CC(C)O [propan-2-ol] + CC(C)OC(C)C
[4], x2 = 0
Conditions | mass density [kg/m3]
293.15 K | 786.91
298.15 K | 782.45
303.15 K | 777.84
308.15 K | 773.13
313.15 K | 768.47
318.15 K | 763.79

refractive index, [5], x2 = 0
Conditions | Wavelength=404.7 nm | Wavelength=435.8 nm | Wavelength=486.1 nm | Wavelength=546.1 nm | Wavelength=587.6 nm | Wavelength=589.3 nm | Wavelength=632.8 nm | Wavelength=644 nm | Wavelength=706.5 nm
293.5 K | 1.3883 | 1.38525 | 1.38179 | 1.37892 | 1.37742 | 1.37736 | 1.37605 | 1.37574 | 1.37424
298.15 K | 1.3861 | 1.38307 | 1.37963 | 1.37678 | 1.37527 | 1.37522 | 1.37392 | 1.37361 | 1.37214
303.15 K | 1.38379 | 1.38078 | 1.37738 | 1.37453 | 1.37304 | 1.37299 | 1.3717 | 1.3714 | 1.36993
308.15 K | 1.38152 | 1.37851 | 1.37512 | 1.3723 | 1.3708 | 1.37075 | 1.36946 | 1.36917 | 1.36772
313.15 K | 1.37921 | 1.37624 | 1.37288 | 1.37005 | 1.36857 | 1.36852 | 1.36726 | 1.36696 | 1.36551
318.15 K | 1.37691 | 1.37397 | 1.37061 | 1.36782 | 1.36635 | 1.36629 | 1.36502 | 1.36473 | 1.36329

Reference: the NIST ThermoML archive (doi:10.1016/j.fluid.2014.09.014)
